Experimental data taken from US20160045614A1, “TARGETED LIPOSOMAL COMPOSITION USING ANTI-HER-2 AFFIBODY MOLECULES AND APPLICATIONS THEREOF IN CANCER TREATMENT” (priority 2014, published 2016).

Tests used:
[1] = tested on: SKBR3, TUBO and MDA-MB231 Cells; experiment: Cytotoxicity study, MTS assay; format: cell-based; settings: 1 and 3 hours incubation, then 72 hours; FIG. 4
Procedure: The anti-proliferative effects of prepared liposomes containing Dox were assessed on SKBR3, TUBO and MDA-MB231 Cells using MTS assay (Promega). For this purpose, the cells were seeded at 5000 cells/well in 96 well plates. After overnight incubation, the medium was replaced with an FCS-free medium containing 1:2 serial dilutions of liposomal Dox or free Dox for scheduled incubation times (1 and 3 hours) at 37° C. The cells were washed gently in PBS and further incubated in the free drugs medium at 37° C. for 72 hours. The viability of cells was determined using a Promega MTS kit. Then, the IC50 of formulations were calculated.

TUBO tumor = experiment: In vivo chemotherapy study, TUBO tumor model; design: species or system female BALB/c mice; settings: 15 mg/kg; possibly acute cardiac toxicity
Procedure: All animal experiments were conducted in compliance with the Institutional Ethical Committee and Research Advisory Committee of Mashhad University of Medical Sciences guidelines. On day 0, female BALB/c mice, aged 4-6 weeks, were given subcutaneous injections of TUBO tumor cells (5×10^5 cells per mouse) in the right flank. On day 14, tumor bearing mice with palpable size received medication via a single tail vein injection of either dextrose 5% solution as negative control or doxorubicin at 15 mg/kg encapsulated in liposomes. Mice were weighed and tumor sizes were monitored within 60 days post-injection and the experiment was terminated for those mice that felt so unwell. Kaplain-Meier event free survival probability curve was obtained for each experimental group.

## COc1cccc2c1C(=O)c1c(O)c3c(c(O)c1C2=O)C[C@@](O)(C(=O)CO)C[C@@H]3O[C@H]1C[C@H](N)[C@H](O)[C@H](C)O1.Cl [Dox, doxorubicin hydrochloride]
[1]
  cytotoxicity (IC50) on HER2+ cell lines SKBR3 and TUBO against HER2− cell line MDA-MB-231: no distinguishing difference between cytotoxicity of HER2^+ and HER2^− cells
TUBO tumor
  survival of the group under conventional Dox treatment: died in early days
